According to ChEMBL document CHEMBL1201862, “PubChem BioAssay data set” (2004):
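Interpolation was linear, between the two tested concentrations surrounding the appropriate level; five concentrations were tested over 48 hours in 96-well plates. GI50 marks 50% less growth.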 The source made the active and inactive calls. No stated cut-off is given here; in the data, active = GI50 up to about 1.1 µM and inactive = higher.

What was measured:
Assay in all cases: NCI anticancer screen, dose series, 48 h
[1] = tested on: IGROV-1
[2] = tested on: SNB-19
[3] = tested on: COLO 205
[4] = tested on: SF-295
[5] = tested on: EKVX
[6] = tested on: SR
[7] = tested on: A549
[8] = tested on: K562
[9] = tested on: SF-268
[10] = tested on: SK-MEL-2
[11] = tested on: HOP-62
[12] = tested on: SW-620
[13] = tested on: SK-MEL-28
[14] = tested on: UACC-62
[15] = tested on: LOX IMVI
[16] = tested on: ACHN
[17] = tested on: NCI-H226
[18] = tested on: UACC-257

Measured: GI50

CCOC(=O)C1C(=O)C(=O)N2CCc3c([nH]c4ccccc34)C12 (stereo not drawn)
inactive: [1] > 100 µM | [2] > 100 µM | [3] > 100 µM | [4] > 100 µM | [5] > 100 µM | [6] > 100 µM | [7] > 100 µM | [8] > 100 µM | [9] > 100 µM | [10] > 100 µM | [11] > 100 µM | [12] > 100 µM | [13] > 100 µM | [14] > 100 µM

CCOC(=O)NC(=O)c1cn(CCN2CCNCC2)c(=O)[nH]c1=O
inactive: [1] > 100 µM | [2] > 100 µM | [3] > 100 µM | [4] > 100 µM | [5] > 100 µM | [6] > 100 µM | [7] > 100 µM | [8] > 100 µM | [9] > 100 µM | [10] > 100 µM | [11] > 100 µM | [15] > 100 µM | [12] > 100 µM | [13] > 100 µM | [16] > 100 µM | [17] > 100 µM | [14] > 100 µM

C[N+]1(C)C/C(=C\c2ccc(O)cc2)C(=O)/C(=C/c2ccc(O)cc2)C1
inactive: [1] > 100 µM | [2] > 100 µM | [3] 47.1 µM | [4] 63.2 µM | [5] > 100 µM | [6] 82.4 µM | [7] 37.5 µM | [9] 55.7 µM | [18] > 100 µM | [11] > 100 µM | [15] 56.8 µM | [12] > 100 µM | [13] > 100 µM | [16] > 100 µM | [14] 64.9 µM

COc1ccc(CNc2cnc3cc(N)ccc3n2)cc1OC
inactive: [2] > 100 µM | [3] > 100 µM | [4] > 100 µM | [5] > 100 µM | [6] > 100 µM | [7] > 100 µM | [8] > 100 µM | [9] > 100 µM | [10] > 100 µM | [18] > 100 µM | [11] > 100 µM | [15] > 100 µM | [12] > 100 µM | [13] > 100 µM | [16] > 100 µM | [17] > 100 µM

Cc1cn(C2CC(CCCO)C(CO)O2)c(=O)[nH]c1=O (stereo not drawn)
inactive: [1] > 100 µM | [2] > 100 µM | [3] > 100 µM | [4] > 100 µM | [5] > 100 µM | [6] > 100 µM | [7] > 100 µM | [8] > 100 µM | [9] > 100 µM | [10] > 100 µM | [18] > 100 µM | [11] > 100 µM | [15] > 100 µM | [12] > 100 µM | [13] > 100 µM | [16] > 100 µM | [14] > 100 µM

CC(C)(C)C#COC(=O)c1ccccc1
inactive: [1] > 100 µM | [2] > 100 µM | [3] > 100 µM | [4] > 100 µM | [5] > 100 µM | [6] > 100 µM | [7] > 100 µM | [8] > 100 µM | [9] > 100 µM | [10] > 100 µM | [18] > 100 µM | [11] > 100 µM | [15] > 100 µM | [12] > 100 µM | [16] > 100 µM | [17] > 100 µM | [14] > 100 µM

FC(F)(F)c1ccc2nc(NCc3ccccc3)c(-c3ccccc3)nc2c1
inactive: [2] 46.2 µM | [3] 37.2 µM | [4] 36 µM | [5] 62.2 µM | [6] 24.9 µM | [7] 26.9 µM | [9] 48.1 µM | [10] 32.9 µM | [18] 28.1 µM | [11] 52.1 µM | [15] 26.3 µM | [12] 49.4 µM | [13] 84.9 µM | [16] 33.2 µM | [17] 37.8 µM | [14] 39 µM

Cc1ccc(/C=C(\C#N)c2ccccc2)cc1
inactive: [1] > 100 µM | [3] > 100 µM | [4] > 100 µM | [6] > 100 µM | [8] > 100 µM | [9] > 100 µM | [10] > 100 µM | [18] > 100 µM | [11] > 100 µM | [15] > 100 µM | [12] > 100 µM | [13] > 100 µM | [16] > 100 µM | [17] > 100 µM | [14] > 100 µM

CN(C)CC/C(=N\Nc1c(F)c(F)c(F)c(F)c1F)c1ccccc1
inactive: [1] 22.2 µM | [2] 54.1 µM | [3] > 100 µM | [4] 38.5 µM | [5] > 100 µM | [6] 17.6 µM | [7] 31.6 µM | [8] 20.4 µM | [9] 90.4 µM | [10] 32.7 µM | [18] 24.1 µM | [11] > 10 µM | [15] 32.7 µM | [12] 74.8 µM | [13] > 100 µM | [16] 30.9 µM | [14] 34.5 µM

CC(=O)OC1C[C@H]2C(OC(=O)c3ccccc3)C3C4(OC(C)=O)COC4C[C@H](OC(C)=O)[C@@]3(C)C(OC(C)=O)[C@H](OC(C)=O)C(=C1C)C2(C)C (stereo partly drawn)
inactive: [1] 41.8 µM | [2] 24.2 µM | [3] 42.7 µM | [4] 33.5 µM | [5] 50.7 µM | [7] 31.2 µM | [8] 23.8 µM | [9] 24.9 µM | [10] 33.3 µM | [18] 58.6 µM | [11] 40 µM | [15] 40.9 µM | [12] 57.9 µM | [13] > 100 µM | [16] 21 µM | [17] 34.1 µM | [14] 77.1 µM

CC(C)C(CCOS(=O)(=O)O)CCC(C)[C@H]1[C@@H](O)C(O)C2[C@]3(O)C[C@@H](O)C4(O)C[C@@H](O)CC[C@]4(C)C3CC[C@@]21C (stereo partly drawn)
inactive: [1] > 100 µM | [2] > 100 µM | [3] > 100 µM | [4] > 100 µM | [5] > 100 µM | [6] > 100 µM | [7] > 100 µM | [8] > 100 µM | [9] > 100 µM | [10] > 100 µM | [11] > 100 µM | [15] > 100 µM | [12] > 100 µM | [13] > 100 µM | [16] > 100 µM | [17] > 100 µM | [14] > 100 µM

c1ccc2nc(-c3ccc4c(c3)OCO4)ccc2c1
inactive: [2] 73.5 µM | [3] 74.6 µM | [4] 46.7 µM | [5] 24.9 µM | [6] 16.7 µM | [7] 49.2 µM | [9] 37.7 µM | [10] 41.3 µM | [18] 15.6 µM | [11] 22 µM | [15] 26.1 µM | [12] 77.6 µM | [13] > 100 µM | [16] 26.5 µM | [17] 21.6 µM
